# Test results reported in PMC2935964, “Selective delivery of 2-hydroxy APA to Trypanosoma brucei using the melamine motif” (Bioorganic & Medicinal Chemistry Letters, 2010).
# Read-outs that look alike come from different tables or passages of the source.
# How the values were obtained:
# rat liver ODC = tested on: rat liver ODC; design: method as in PMID 1573631; conditions: previously reported; read-out: inhibition of rat liver ODC; cited from earlier work
# [1] = tested on: T. brucei brucei wild type; experiment: In vitro activity against T. brucei brucei wild type (P2 transporter proficient); type: cell-based, Trypanosoma brucei brucei; conditions: for EC50: Trypanosoma brucei, read-out: T. brucei brucei EC50 Wild type
# Experimental: (§1) Compounds were tested against two T. brucei lines in vitro. The T. brucei brucei wild type that is proficient in the P2 transporter and a TbAT1 knockout line lacking the P2 transporter. This TbAT1 knockout line has been described previously.[27]
# T. brucei ODC = T. brucei ODC (Trypanosoma brucei brucei, UniProt P07805); experiment: Inhibition of T. brucei ODC (previously described assay); type: biochemical
# [2] = tested on: T. brucei brucei TbAT1 KO; experiment: In vitro activity against TbAT1 knockout line lacking the P2 transporter; type: cell-based, Trypanosoma brucei brucei; conditions: for EC50: Trypanosoma brucei, read-out: T. brucei brucei EC50 TbAT1 KO; for Resistance factor (EC50 KO/EC50 w.t.): ratio TbAT1 KO vs wild type
# Experimental: as §1
# [3] = wild type, P2 proficient, NA = no activity at 100 μM
# Chain of T. brucei ODC (P07805 whole entry): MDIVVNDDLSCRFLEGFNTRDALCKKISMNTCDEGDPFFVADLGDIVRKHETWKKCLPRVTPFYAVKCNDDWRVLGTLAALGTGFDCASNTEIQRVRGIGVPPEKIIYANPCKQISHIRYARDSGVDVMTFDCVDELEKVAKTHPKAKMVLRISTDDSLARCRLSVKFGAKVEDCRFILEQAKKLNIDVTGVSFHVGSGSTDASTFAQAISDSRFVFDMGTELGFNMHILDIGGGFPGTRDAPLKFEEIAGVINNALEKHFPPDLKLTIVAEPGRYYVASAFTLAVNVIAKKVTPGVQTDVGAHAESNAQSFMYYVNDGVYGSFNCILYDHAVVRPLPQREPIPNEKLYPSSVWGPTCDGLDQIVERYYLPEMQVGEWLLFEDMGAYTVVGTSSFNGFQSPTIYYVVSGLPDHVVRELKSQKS
melting point [°C],SMILES,IC50 (rat liver ODC) [µM],EC50 [1] [µM],"T. brucei brucei EC50 Wild type [1, 3]",IC50 (T. brucei ODC) [µM],EC50 [2] [µM],Resistance factor (EC50 KO/EC50 w.t.) [2],"EC50 [1, 3] [µM]"
,"Cl.NCCCON [Compound 3, 3-(aminooxy)propanamine, reference compound]",0.035,> 100,inactive,0.022 ± 0.007,,,
,"NCC(O)CON (centres unmarked) [Compound 7, 2-hydroxy APA]",0.039,> 100,,0.048 ± 0.009,,,
,CC(C)(C)OC(=O)NCC(CONC(=O)OC(C)(C)C)OC(=O)CCNc1nc(N)nc(N)n1 (centres unmarked) [Compound 10b],,77,,,40,0.5,
150 to 170,Cl.Cl.NCC(CON)OC(=O)CNc1nc(N)nc(N)n1 (centres unmarked) [Compound 11a],,,,,,,> 100
150 to 170,Cl.Cl.NCC(CON)OC(=O)CCNc1nc(N)nc(N)n1 (centres unmarked) [Compound 11b],,,,,,,> 100
,Cl.Cl.NCC(CON)OC(=O)CCCNc1nc(N)nc(N)n1 (centres unmarked) [Compound 11d],,,,,288,2.5,113

SMILES,melting point [°C],IC50 (rat liver ODC) [µM],EC50 [1] [µM],"T. brucei brucei EC50 Wild type [1, 3]",IC50 (T. brucei ODC) [µM],EC50 [2] [µM],Resistance factor (EC50 KO/EC50 w.t.) [2],"EC50 [1, 3] [µM]"
CC(Nc1nc(N)nc(N)n1)C(=O)OC(CN)CON.Cl.Cl (centres unmarked) [Compound 11c],160 to 180,,,,,,>3,29
